How the values were obtained:
Human SLC6A14 = target: T1, Human SLC6A14 (Homo sapiens, UniProt Q9UN76); assay: SLC6A14 transport function in X. laevis oocytes (two-microelectrode voltage-clamp); format: cell-based; settings: 1 mM α-MT; currents induced by 100 M (so in the source) leucine, glutamine or arginine
T1 construct: expressed in transfected cells; host or cells: Xenopus laevis oocytes, microinjected with human SLC6A14 cRNA
T1 sequence (Q9UN76 1-642): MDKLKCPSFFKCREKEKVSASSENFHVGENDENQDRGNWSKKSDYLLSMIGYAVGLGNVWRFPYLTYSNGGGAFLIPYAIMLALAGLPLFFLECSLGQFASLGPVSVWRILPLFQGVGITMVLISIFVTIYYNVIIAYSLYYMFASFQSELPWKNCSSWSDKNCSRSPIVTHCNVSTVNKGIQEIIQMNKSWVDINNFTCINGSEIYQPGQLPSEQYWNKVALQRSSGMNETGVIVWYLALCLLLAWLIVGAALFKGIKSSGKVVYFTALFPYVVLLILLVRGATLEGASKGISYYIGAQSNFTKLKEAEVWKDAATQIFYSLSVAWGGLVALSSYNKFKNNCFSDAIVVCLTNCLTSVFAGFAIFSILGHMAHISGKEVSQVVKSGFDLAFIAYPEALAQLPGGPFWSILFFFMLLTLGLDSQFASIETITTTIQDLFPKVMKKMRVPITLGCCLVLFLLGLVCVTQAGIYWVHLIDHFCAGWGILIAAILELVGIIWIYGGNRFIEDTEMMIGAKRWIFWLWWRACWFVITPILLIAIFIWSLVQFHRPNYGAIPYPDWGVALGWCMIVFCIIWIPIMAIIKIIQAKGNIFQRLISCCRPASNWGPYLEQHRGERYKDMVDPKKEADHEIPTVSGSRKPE
Source text: FIGS. 3A and 3B. Natactivation kinetics of SLC6A14-mediated transport of leucine (FIG. 3A) and arginine and glutamine (FIG. 3B). Human SLC6A14 was expressed heterologously in X. laevis oocytes by microinjection of cRNA. Four days following injection, oocytes were used for electrophysiological studies using the two-microelectrode voltage-clamp method. […] Since the expression levels varied from oocyte to oocyte resulting in varying magnitudes of amino acid-induced currents, the currents were normalized by taking the magnitude of the currents induced at 100 mM Na^+ as 1 in each oocyte and calculating the magnitude of the currents induced at other concentrations of Na^+ as a fraction of this maximal current. The experiments were done with three different oocytes and the results are given as means±SE. Insets, Hill plots.
FIG. 4. Cl^−-activation kinetics of SLC6A14-mediated transport of leucine, arginine, and glutamine. […] The experiments were done with three different oocytes and the results are given as means±SE.
FIGS. 5A to 5C. Blockade of SLC6A14-mediated transport of leucine (FIG. 5A), glutamine (FIG. 5B), and arginine (FIG. 5C) by α-MT. Oocytes injected with human SLC6A14 cRNA were perifused with 100 µM leucine, 100 μM glutamine, or 100 μM arginine under varying experimental conditions as indicated.
Analysis of SLC6A14 transport function in X. laevis oocytes. SLC6A14-mediated transport of leucine, glutamine, and arginine and its blockade by α-MT were studied using the X. laevis oocyte heterologous expression system as described previously (Hatanaka et al., 2001, J Clin Invest; 107:1035-1043; and Karunakaran et al., 2008, Biochem J; 414:343-355). Human cloned SLC6A14 cDNA was used in these studies.

MB231 cells = assay: Western blot of lamin A degradation product (caspase-6 substrate); format: cell-based, human; settings: SLC6A14-negative MB231 cells, α-MT 2.5 mM, identical conditions
Experimental: (§1) FIGS. 9A to 9D. Influence of α-MT on mTOR activity In FIG. 9A, MCF7 and MB231 cells were treated without or with α-MT (2.5 mM) for 24 h, 48 h, or 72 h, and then the cell lysates were used for western blot. Influence of α-MT with or without 3-MA on cell death. In FIG. 9B, MCF7, MB231, and MCF10A cells were treated for 48 h without or with α-MT (2.5 mM), 3-MA (10 mM), or α-MT (2.5 mM) plus 3-MA (10 mM), and then analyzed for cell death by propidium iodide (PI) staining and FACS-based cell cycle analysis. In FIG. 9C, MCF7 cells were treated for 48 h without or with α-MT (2.5 mM), 3-MA (10 mM), or α-MT (2.5 mM) plus 3-MA (10 mM), and then analyzed for apoptotic cell death by annexin V labeling. In FIG. 9D, MCF7 and MB231 cells were treated without or with 2.5 mM α-MT for 24 h, 48 h, or 72 h. Cell lysates were then used for western blot analysis of lamin A degradation product using an antibody that recognizes specifically the proteolytic cleavage product. β-Actin was used as an internal control.

MCF7 cells [1] = assay: as above; format: cell-based, human; settings: MCF7, α-MT 2.5 mM, 24, 48 or 72 h
Experimental: as §1

MCF7 cells [2] = assay: Cell death by propidium iodide staining and FACS cell cycle analysis; format: cell-based, human; settings: 48 h
Experimental: Fluorescence-activated cell sorting (FACS) was used to monitor cell death. MCF7 cells were treated with or without α-MT, 3-MA, or α-MT plus 3-MA. Control and treated cells were then fixed in 50% ethanol, treated with 0.1% sodium citrate, 1 mg/ml RNase A, and 50 μg/ml propidium iodide, and then subjected to FACS analysis (FACS Caliber, Becton Dickinson).

CC(N)(Cc1c[nH]c2ccccc12)C(=O)O (racemic) [α-MT, α-methyl-DL-tryptophan]
blockade of amino acid-induced inward currents (Human SLC6A14): blocked
apoptosis (Lamin A cleavage) (MB231 cells): no evidence of apoptosis
apoptotic cell death shown by Lamin A cleavage (MCF7 cells [1]): cleavage of Lamin A
cell death (propidium iodide, cell cycle analysis) (MCF7 cells [2]; MCF7, α-MT 2.5 mM alone): significant cell death
cell death (propidium iodide, cell cycle analysis) (MCF7 cells [2]; MCF7, α-MT 2.5 mM with cotreatment 3-MA 10 mM): further potentiated

Source: US20140024663A1, “ATB(0,+) AMINO ACID TRANSPORTER AS A DRUG TARGET FOR TREATMENT OF ESTROGEN RECEPTOR-POSITIVE BREAST CANCER” (GEORGIA HEALTH SCIENCES UNIVERSITY RESEARCH INSTITUTE, INC., priority 2012, published 2014)
